In assay [1] the test system is Klebsiella pneumoniae 20. As to the kind of experiment: In vitro antibacterial activity, two-fold agar-plate dilution method. In kind it is cell-based. Particulars: heart infusion agar (HI-agar), incubated at 37°C for 20 hours. On the procedure: (§1) In vitro antibacterial activity was determined by the two-fold agar-plate dilution'method as described below. One loopful of an overnight culture of each test strain in Trypticase soy broth was streaked on heart infusion agar (HI-agar) containing graded concentration of the test compound and incubated at 37°C for 20 hours. The minimal inhibitory concentration (MIC) was expressed in µg/m1.

The subject of assay [2] is Proteus mirabilis 18. The assay is described as above. In kind it is cell-based. Particulars: heart infusion agar (HI-agar), incubated at 37°C for 20 hours. On the procedure: as §1

Molecules are shown by their SMILES. In brackets after ≈: the same amount, converted by molar mass.

As a reminder, the MIC is the least concentration at which growth counts as inhibited. A high value points to a need for much substance.

Regarding `CO/N=C(\C(=O)NC1C(=O)N2C(C(=O)O)C(=COC(C)=O)CSC12)c1csc(N)n1` (stereo not drawn) [Test compound, 7-[2-(2-Aminothiazol-4-yl)-2-methoxyimino-acetamido]-3-acetoxymethylenecepham-4-carboxylic acid (syn isomer)], the MIC in assay [1] and in assay [2] was 6.25 µg/mL (≈ 13.7 µM) in each case.

For the origin of these results see EP0010667A1, “Cepham compounds, pharmaceutical compositions containing them and processes for the preparation thereof and of known cephem compounds” (FUJISAWA PHARMACEUTICAL CO., LTD., priority 1978, dated 1980).
